One series concerns LASV-p. Nature of the series: microbe, parasite or virus in culture. The format is cell-based, Lassa (LASV). To be noted: Vesicular stomatitis virus, Vero, read-out: LASV-p EC50.
A further series concerns MACV-p. The series is described as follows: organism not typed. The format is cell-based, Machupo (MACV). To be noted: Vero, read-out: MACV-p EC50.
Another series concerns JUNV-p. The series is described as follows: organism not typed. The format is cell-based, Junin (JUNV). To be noted: Vero, read-out: JUNV-p EC50.
The subject of the next series is TCRV-p. Nature of the series: organism not typed. To be noted: read-out: TCRV-p EC50. The format is cell-based.
The test system of the next series is VSV-p. Nature of the series: microbe, parasite or virus in culture. Type of series: cell-based. To be noted: Vesicular stomatitis virus, Vero, read-out: VSV-p EC50.
A short description of a further series: in vitro. To be noted: African green monkey.
The conditions of series [1]: 1 h, pH 7.4.
The subject of a further series is replicative LASV. Nature of the series: microbe, parasite or virus in culture. Type of series: cell-based, Lassa Virus. To be noted: for EC90: Mammarenavirus lassaense.
The conditions of series [2]: guinea pig, 1 h, pH 7.4.
The conditions of series [3]: 1 h, pH 7.4. This is another data set of the same source.

Like-named read-outs stand apart in the source and are kept apart here. A value given as a limit tells only on which side of the number the result lay.

A word on the EC50: it is the concentration at which the effect is half-maximal. Usually EC90 stands for the concentration at which the effect reaches the 90% level.

Consider `CC(C)Oc1ccc(-c2cc3c(cc2CN)nnn3-c2ccc(OC(C)C)cc2)cc1` [Example C22, (1,6-bis(4-isopropoxyphenyl)-1H-benzo[d][1,2,3]triazol-5-yl)methanamine], for which the EC50 is over 25 nM in the series with LASV-p; over 25 nM in the series with MACV-p; over 25 nM with JUNV-p; over 25 nM with TCRV-p (Vero); over 10 µM in the series on VSV-p.
Turning to `CC(C)Oc1ccc(-c2cc3c(cc2CO)nnn3-c2ccc(OC(C)C)cc2)cc1` [Example C19, (1,6-bis(4-isopropoxyphenyl)-1H-benzo[d][1,2,3]triazol-5-yl)methanol], the EC50 in the series on LASV-p is 22.5 nM; in the series on MACV-p, 3.82 nM; in the series with JUNV-p, 0.75 nM; in the series on TCRV-p (Vero) it was 8 nM; in the series on VSV-p, over 10 µM. This molecule displayed a CC50 in the series “in vitro” of 81.7 µM.
Regarding `C=Cc1cc2nnn(-c3ccc(OC(C)C)cc3)c2cc1-c1ccc(OC(C)C)cc1` [Example C25, 1,6-bis(4-isopropoxyphenyl)-5-vinyl-1H-benzo[d][1,2,3]triazole], the EC50 with LASV-p is 6.78 nM; in the series on MACV-p it was 0.3 nM; in the series on JUNV-p, 1.47 nM; with TCRV-p (Vero), 8.01 nM; with VSV-p, over 10 µM. Moreover, in the series “in vitro”, the CC50 came out at 3.87 µM.
`CC(C)Oc1ccc(-c2cc3c(cc2C(=O)O)nnn3-c2ccc(OC(C)C)cc2)cc1` [Example C20, 1,6-bis(4-isopropoxyphenyl)-1H-benzo[d][1,2,3]triazole-5-carboxylic acid]: the EC50 was over 25 nM in the series with LASV-p; over 25 nM with MACV-p; over 25 nM in the series on JUNV-p; over 25 nM in the series on TCRV-p (Vero); over 10 µM in the series on VSV-p.
As for `COc1cc2nnn(-c3ccc(O)cc3)c2cc1-c1ccc(O)cc1` [Example C24, 4,4′-(5-methoxy-1H-benzo[d][1,2,3]triazole-1,6-diyl)diphenol], the concentration giving a half-maximal response (EC50) with LASV-p is 4.62 nM; in the series with MACV-p it was over 25 nM; in the series with JUNV-p, 19 nM; with TCRV-p (Vero) it was 18.4 nM; with VSV-p it was over 10 µM. In addition, in the series “in vitro”, the CC50 amounted to 32.2 µM.
Turning to `CCc1cc2nnn(-c3ccc(OC(C)C)cc3)c2cc1-c1ccc(OC(C)C)cc1` [Example C26, 5-ethyl-1,6-bis(4-isopropoxphenyl)-1H-benzo[d][1,2,3]triazole], the concentration for a half-maximal effect (EC50) in the series with LASV-p is 3.9 nM; in the series on MACV-p, 0.04 nM; in the series with JUNV-p, 0.1 nM; in the series with TCRV-p (Vero), 5.92 nM; in the series on VSV-p, over 10 µM. This molecule had a CC50 in “in vitro” of 3.59 µM.
`COC(=O)c1cc2nnn(-c3ccc(OC(C)C)cc3)c2cc1-c1ccc(OC(C)C)cc1` [Example C10, methyl 1,6-bis(4-isopropoxyphenyl)-1H-benzo[d][1,2,3]triazole-5-carboxylate]: the EC50 with LASV-p is 20.6 nM; in the series with MACV-p, 4.05 nM; in the series with JUNV-p, 11 nM; in the series with TCRV-p (Vero), 12.3 nM; in the series on VSV-p it was over 10 µM. The CC50 in the series “in vitro” was over 100 µM.
`CC(C)Oc1ccc(-c2cc3c(cc2N)nnn3-c2ccc(OC(C)C)cc2)cc1` [Example C23, 1,6-bis(4-isopropoxyphenyl)-1H-benzo[d][1,2,3]triazol-5-amine]: the EC50 was 6.72 nM in the series with LASV-p; 0.53 nM with MACV-p; 0.29 nM with JUNV-p; 0.96 nM with TCRV-p (Vero); over 10 µM in the series on VSV-p. Besides, the CC50 in “in vitro” was 43 µM.
On to `Cc1nc2ncc(-c3ccc(OC(C)C)cc3)n2cc1-c1ccc(OC(C)C)cc1` [Example D27, 3,6-bis(4-isopropoxyphenyl)-7-methylimidazo[1,2-a]pyrimidine], for which the EC50 with LASV-p was 0.75 nM; in the series with MACV-p, 0.85 nM; in the series on JUNV-p, 0.78 nM; in the series on TCRV-p (Vero), 0.2 nM; in the series on VSV-p, over 10 µM. The molecule also returned a CC50 in “in vitro” of 2.18 µM.
Consider `CC(C)Oc1ccc(-c2cc3c(cc2F)nnn3-c2ccc(OC(C)C)cc2)cc1` [Example C13, 5-fluoro-1,6-bis(4-isopropoxyphenyl)-1H-benzo[d][1,2,3]triazole], for which the EC50 in the series on LASV-p was 4 nM; in the series on MACV-p, 0.66 nM; in the series on JUNV-p, 0.27 nM; in the series with TCRV-p (Vero) it was 1.53 nM; in the series on VSV-p it was over 10 µM. The “Percent parent compound remaining at 60 minutes in liver microsomes, Human” value (from here on “Percent parent compound remaining … Human”) in [1] worked out at 79.5%. The molecule further had a CC50 in the series “in vitro” of over 100 µM.
Consider `[2H]C([2H])([2H])C([2H])(Oc1ccc(-c2cn3c(-c4ccc(OC(C)(C)C)cc4)cnc3cc2C)cc1)C([2H])([2H])[2H]` [Example E30, 3-(4-(tert-butoxy)phenyl)-6-(4-(isopropoxy-d7)phenyl)-7-methylimidazo[1,2-a]pyridine], for which the EC50 in the series on LASV-p came out at 0.39 nM; with MACV-p it was 0.09 nM; in the series on JUNV-p it was 0.09 nM; in the series with TCRV-p, 0.2 nM. Further, the Sl90 in the series on replicative LASV is listed as >1,510. For the same molecule, the EC90 is under 14 nM in the series with replicative LASV (Vero, read-out: VYR Assay EC90) and under 14 nM in the series with replicative LASV (read-out: EC90 in the VYR assay format). In the series “in vitro”, this molecule returned a CC50 of 3.8 µM.
On to `COc1cc2nnn(-c3ccc(OC(C)C)cc3)c2cc1-c1ccc(OC(C)C)cc1` [Example C15, 1,6-bis(4-isopropoxyphenyl)-5-methoxy-1H-benzo[d][1,2,3]triazole], for which the EC50 in the series on LASV-p was 23.4 nM; in the series with MACV-p it was 7.09 nM; with JUNV-p, 3.06 nM; in the series with TCRV-p (Vero), 11.4 nM; in the series with VSV-p it was over 10 µM. In “in vitro”, this molecule yielded a CC50 of 98.4 µM.
Take `CC(C)Oc1ccc(-n2nnc3ccc(-c4cccc(C(C)(C)O)c4)cc32)cc1` [Example C17, 2-(3-(1-(4-isopropoxyphenyl)-1H-benzo[d][1,2,3]triazol-6-yl)phenyl)propan-2-ol]: the EC50 with LASV-p was 15.8 nM; in the series with MACV-p, over 25 nM; in the series with JUNV-p it was 12.2 nM; in the series on TCRV-p (Vero) it was over 25 nM; in the series on VSV-p, over 10 µM. The same molecule yielded a CC50 in the series “in vitro” of 10.5 µM.
For `CC(C)Oc1ccc(-c2ccc3nnn(-c4ccc(OC(C)C)cc4)c3c2F)cc1` [Example C12, 7-fluoro-1,6-bis(4-isopropoxyphenyl)-1H-benzo[d][1,2,3]triazole], the EC50 in the series on LASV-p is 1.31 nM; in the series on MACV-p, 0.55 nM; in the series with JUNV-p it was 0.15 nM; in the series on TCRV-p (Vero) it was 15 nM; with VSV-p, over 10 µM. For the same molecule, the “Percent parent compound remaining at 60 minutes in liver microsomes, Guinea” value in series [2] was over 95%. Also, the “Percent parent compound remaining at 60 minutes in liver microsomes, Mouse” value in series [3] is recorded as 90.3%. Besides, the “Percent parent compound remaining … Human” value in series [1] was over 95%. Besides, the CC50 in “in vitro” is over 100 µM.
For `Cc1c(-c2ccc(OC(C)C)cc2)ccc2nnn(-c3ccc(OC(C)C)cc3)c12` [Example C14, 1,6-bis(4-isopropoxyphenyl)-7-methyl-1H-benzo[d][1,2,3]triazole], the EC50 in the series on LASV-p is 2.44 nM; in the series on MACV-p, 0.28 nM; with JUNV-p, 0.17 nM; in the series with TCRV-p (Vero) it was 4.7 nM; in the series with VSV-p, over 10 µM. In series [2], the “Percent parent compound remaining at 60 minutes in liver microsomes, Guinea” value is listed as over 95%. The “Percent parent compound remaining at 60 minutes in liver microsomes, Mouse” value in series [3] was over 95%. Also, the “Percent parent compound remaining … Human” value in series [1] was over 95%. The molecule also had a CC50 in the series “in vitro” of over 100 µM.
Take `Cc1cc2ncc(-c3ccc(C(C)(C)O)cc3)n2cc1-c1ccc(C(C)(C)O)cc1` [Example B9, 2,2′-((7-methylimidazo[1,2-a]pyridine-3,6-diyl)bis(4,1-phenylene))bis(propan-2-ol)]: the EC50 in the series with LASV-p was over 25 nM; in the series with MACV-p, over 25 nM; with JUNV-p, over 25 nM; with TCRV-p (Vero) it was 16.1 nM; with VSV-p it was over 10 µM.
Turning to `Cc1nc2ncc(-c3ccc(C(C)(C)O)cc3)n2cc1-c1ccc(OC(C)C)cc1` [Example D29, 2-(4-(6-(4-isopropoxphenyl)-7-methylimidazo[1,2-a]pyrimidin-3-yl)phenyl)propan-2-ol], the EC50 with LASV-p was 1.84 nM; with MACV-p it was 0.87 nM; with JUNV-p, 1.03 nM; with TCRV-p (Vero), 1.27 nM; with VSV-p, over 10 µM. Moreover, the CC50 in “in vitro” was found to be 42.1 µM.
Take `CC(C)Oc1ccc(-n2nnc3ccc(-c4cccc(OC(C)C)c4)cc32)cc1` [Example C18, 6-(3-isopropoxyphenyl)-1-(4-isopropoxyphenyl)-1H-benzo[d][1,2,3]triazole]: the EC50 with LASV-p was over 25 nM; in the series on MACV-p it was over 25 nM; in the series on JUNV-p it was over 25 nM; in the series on TCRV-p (Vero), over 25 nM; with VSV-p, over 10 µM.
Consider `CC(C)Oc1ccc(-c2cc3c(cc2C(N)=O)nnn3-c2ccc(OC(C)C)cc2)cc1` [Example C21, 1,6-bis(4-isopropoxyphenyl)-1H-benzo[d][1,2,3]triazole-5-carboxamide], for which the EC50 is over 25 nM with LASV-p; over 25 nM in the series on MACV-p; over 25 nM with JUNV-p; over 25 nM in the series with TCRV-p (Vero); over 10 µM in the series on VSV-p.
In the case of `Cc1nc2ncc(-c3ccc(OC(C)(C)C)cc3)n2cc1-c1ccc(OC(C)C)cc1` [Example D28, 3-(4-(tert-butoxy)phenyl)-6-(4-isopropoxyphenyl)-7-methylimidazo[1,2-a]pyrimidine], the EC50 was 0.3 nM in the series on LASV-p; 0.31 nM in the series on MACV-p; 0.4 nM with JUNV-p; 0.15 nM in the series on TCRV-p (Vero); over 10 µM with VSV-p. This molecule also gave a CC50 in the series “in vitro” of 12.3 µM.

The record behind these values is patent US12419865B2 (priority 2018, dated 2025).
